In the supplement of paper PMC11061612:

What was measured:
[1] = test system: SK-GT-4 (Esophageal Adenocarcinoma); assay: Bliss excess, mean over the matrix (fraction); higher = more synergy
In short: (§1)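 Cell lines grown in DMEM/F12 or RPMI with 10% FBS were plated in 1536-well plates and held 24 hours at 37°C, 5% CO2 before 72 hours of exposure to two-drug dose matrices, with DMSO typically at 0.2%. CellTiter-Glo 2.0 luminescence gave viability, which was converted to inhibition. Vehicle wells were set to 0 and blank wells to 1. Combination Emax is the second-highest inhibition in the matrix, and Bliss excess is the observed combination effect minus the expected EA + EB − EA·EB, where EA and EB are the single-agent effects.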

[2] = test system: 8505C (Thyroid Gland Carcinoma); assay: combination Emax (second highest fraction inhibited in the dose matrix, 72 h); higher = more inhibition; extreme values may be limits of the assay
In short: as §1

[3] = test system: CHSA8926 (Chondrosarcoma); assay: as above
In short: as §1

[4] = test system: COR-L279 (Small Cell Lung Carcinoma); assay: as above
In short: as §1

[5] = test system: DMS-114 (Small Cell Lung Carcinoma); assay: as above
In short: as §1

[6] = test system: ESO51 (Esophageal Adenocarcinoma); assay: as above
In short: as §1

[7] = test system: HCC1187 (Breast Carcinoma); assay: as above
In short: as §1

[8] = test system: IM-95 (Gastric Carcinoma); assay: as above
In short: as §1

[9] = test system: KY821 (Acute Myeloid Leukemia); assay: as above
In short: as §1

[10] = test system: MN-60 (B-Lymphoblastic Leukemia); assay: as above
In short: as §1

[11] = test system: NCI-H520 (Squamous Cell Lung Carcinoma); assay: as above
In short: as §1

[12] = test system: NCI-H661 (Non-Small Cell Lung Carcinoma); assay: as above
In short: as §1

[13] = test system: PC-3 (Prostate Carcinoma); assay: as above
In short: as §1

[14] = test system: SK-GT-4 (Esophageal Adenocarcinoma); assay: as above
In short: as §1

[15] = test system: SNU-398 (Hepatocellular Carcinoma); assay: as above
In short: as §1

[16] = test system: ST486 (Burkitt's Lymphoma); assay: as above
In short: as §1

[17] = test system: SU-DHL-5 (B-Cell Non-Hodgkin's Lymphoma); assay: as above
In short: as §1

[18] = test system: SUP-B15 (B-Lymphoblastic Leukemia); assay: as above
In short: as §1

[19] = test system: T-T (Esophageal Squamous Cell Carcinoma); assay: as above
In short: as §1

[20] = test system: KP-3 (Pancreatic Carcinoma); assay: as above
In short: as §1
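Wherever Bliss excess, mean over the matrix is given: after 72 h of two-drug dosing.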

SMILES | Bliss excess [1] | combination Emax [2] | combination Emax [3] | combination Emax [4] | combination Emax [5] | combination Emax [6] | combination Emax [7] | combination Emax [8] | combination Emax [9] | combination Emax [10] | combination Emax [11] | combination Emax [12] | combination Emax [13] | combination Emax [14] | combination Emax [15] | combination Emax [16] | combination Emax [17] | combination Emax [18] | combination Emax [19] | combination Emax [20]
Cc1c2c(nn1C)CSCc1cc(n(C)n1)CSc1cc(c3ccccc3c1)OCCCc1c(C(=O)O)n(C)c3c-2c(Cl)ccc13 [AZD5991] + Cn1cnc2c(F)c(Nc3ccc(Br)cc3Cl)c(C(=O)NOCCO)cc21 [Selumetinib] (first compound max 1 µM, 7x7, partner max 3 µM) | -0.0385 | 0.42 | 0.303 | 0.18 | 0.43 | 0.361 | 0.986 | 0.957 | 1 | 0.323 | 0.176 | 0.462 | 0.245 | 0.574 | 1 | 0.993 | 1 | 1 | 0.936 | 
COc1nnc2ccc(N3CCC(c4ccc(OCCN5CCN(C)C(=O)[C@H]5C)cc4)CC3)nn12 [AZD5153] + CN(CC[C@H](CSC1=CC=CC=C1)NC2=C(C=C(C=C2)S(=O)(=O)NC(=O)C3=CC=C(C=C3)N4CCC(CC4)[C@H](C5=CC=CC=C5C6=CC=C(C=C6)Cl)O)S(=O)(=O)C(F)(F)F)CCO [AZD4320] (first compound max 1 µM, 7x7, partner max 1 µM) |  | 0.441 | 0.695 |  |  | 0.666 | 0.366 | 0.548 | 1 |  |  | 0.272 | 0.347 |  | 0.451 |  | 0.994 | 1 |  | 
C[C@@H]1COCCN1c1cc(C2([S@](C)(=N)=O)CC2)nc(-c2ccnc3[nH]ccc23)n1 [AZD6738] + O=C(c1cc(Cc2n[nH]c(=O)c3ccccc23)ccc1F)N1CCN(C(=O)C2CC2)CC1 [Olaparib] (first compound max 10 µM, 7x7, partner max 10 µM) | -0.046 | 0.356 | 0.36 | 0.927 | 0.528 | 0.555 | 0.532 | 0.459 | 0.97 | 0.528 | 0.752 | 0.54 | 0.514 | 0.51 | 0.354 | 0.909 | 1 | 0.969 | 0.448 | 
Cc1c2c(nn1C)CSCc1cc(n(C)n1)CSc1cc(c3ccccc3c1)OCCCc1c(C(=O)O)n(C)c3c-2c(Cl)ccc13 [AZD5991] + CN(C)CCCOc1ccc(-c2ccc3ncc4c(c3c2)n(C2CCOCC2)c(=O)n4C)cn1 [AZD0156] (first compound max 1 µM, 7x7, partner max 1 µM) | -0.031 | 0.609 | 0.497 | 0.496 | 0.548 | 0.205 | 0.988 | 0.824 | 1 | 0.177 | 0.509 | 0.505 | 0.282 | 0.277 | 1 | 0.805 | 1 | 1 | 0.901 | 
C=CCn1c(=O)c2cnc(Nc3ccc(N4CCN(C)CC4)cc3)nc2n1-c1cccc(C(C)(C)O)n1 [AZD1775] + C[C@@H]1COCCN1C2=NC(=NC(=C2)C3(CC3)[S@](=N)(=O)C)C4=C5C=CNC5=NC=C4 [AZD6738] (first compound max 1 µM, partner max 10 µM) | 0.0046 |  | 0.461 | 0.675 | 0.511 | 0.754 | 0.683 | 0.761 | 1 | 0.64 | 0.86 | 0.689 | 0.498 | 0.722 | 0.563 | 0.979 | 1 | 0.914 | 0.73 | 
CC(=O)Nc1cccc(-n2c(=O)n(C3CC3)c(=O)c3c(Nc4ccc(I)cc4F)n(C)c(=O)c(C)c32)c1 [Trametinib] + Cc1nc(-c2cn3c(n2)-c2ccc(-c4cnn(C(C)(C)C(N)=O)c4)cc2OCC3)n(C(C)C)n1 [Taselisib] (first compound max 1 µM, 7x7, partner max 10 µM) | 0.103 | 0.496 |  | 0.661 | 0.668 | 0.987 | 0.456 | 0.584 | 0.97 | 0.42 | 0.65 | 0.457 | 0.503 | 0.954 | 0.56 | 0.775 | 1 | 1 | 0.903 | 0.446
C[C@@H](c1ccc2nccn2c1)n1nnc2ncc(-c3cnn(C)c3)nc21 [Savolitinib] + CN(CC[C@H](CSC1=CC=CC=C1)NC2=C(C=C(C=C2)S(=O)(=O)NC(=O)C3=CC=C(C=C3)N4CCC(CC4)[C@H](C5=CC=CC=C5C6=CC=C(C=C6)Cl)O)S(=O)(=O)C(F)(F)F)CCO [AZD4320] (first compound max 1 µM, 7x7, partner max 1 µM) |  | 0.201 | 0.528 |  |  | 0.95 | 0.205 | 0.675 | 1 |  |  | 0.189 | 0.189 |  | 0.245 |  | 0.24 | 1 |  | 
